# Results as given in patent US11351154B2, “Molecular genetic approach to treatment and diagnosis of alcohol and drug dependence” (University of Virginia Patent Foundation, priority 2011, dated 2022).
# What was measured:
# [1] = tested on: individuals who take topiramate; conditions: cited from earlier work
# [2] = tested on: individuals in alcohol trials; conditions: naltrexone dose of 50 mg/day; cited from earlier work
# [3] = tested on: subjects of the ondansetron clinical trial (251 subjects); test: CART decision-tree subgroup analysis of ondansetron treatment effect on percentage heavy drinking; assay type: in vivo, human; conditions: for E(Y|T=1), Y=phd base90-mean(phdweek): T=1(ondansetron)
# Text: A decision tree is a structure that can be used to divide up a large collection of records into successively smaller sets of records by applying a sequence of simple decision rules. One advantage of decision tree is that the results can be easily interpreted. CART is a popular decision tree algorithm first published in Breiman et al 1984. CART starts by dividing data into 2 sub-groups (child nodes) that are homogeneous with respect to a particular target variable, in our case the target variable is the binary class label Z. By doing exhaustive search over all possible cutoffs for all possible candidate covariates, sub-groups are formed by identifying optimal split point for the optimal candidate covariate. Repeat the process recursively at each child node until one of the stopping criteria is met. In the end, CART prunes tree to smaller optimal size using cross-validation. After the final tree is determined, the class label (treatment) for “new subjects” is given by running them down the tree and identifying which terminal node they belong. The class label of the terminal node is formed by majority vote of cases in this node, that is if the proportion of class 1 in this node p>0.5, then the class label is 1, otherwise is 0. Let t denote the node, which is a region of the covariates space. A Split denoted by s on a numeric variable Xj take the form Xj<xji, where xji is a cut-off selected by trying all values of Xj in the data set as candidate split points. s splits the node t into left and right daughter nodes […]. The impurity function is used as a measure of node homogeneity. To calculate the impact of a split, compute increase in purity (or reduction in impurity) and choose a split that gives maximal value over all possible splits as the best splitter for node t. Gini criterion is the usual splitting criteria chosen by CART for categorical target. […] The full tree would not do the best job when applied to new dataset. The CART identifies candidate sub-trees through a process of repeated pruning. CART relies on a concept called adjusted error rate, AERα(T)=error rate(T)+α node count(T). This is a measure that increases each tree(T)'s misclassification rate on the training set by imposing a complexity penalty based on the number of final nodes in the tree. One can form a sequence of sub-trees of the full tree by varying the penalty value (cost complexity parameter), α and determining the tree that minimizes the adjusted error rate. After deleting the subjects with missing data, 251 subjects were included in the data analysis. Y=phd […]=(phd base90,Onage,[…], . . . , […]). There are total 21 genotypes. T=1(ondansetron) and T=0(placebo). The goal is to find a subgroup defined by X where the treatment effect is significant. After transforming this problem to a classification problem. CART was used to find the best subgroup with decision tree form.
smiles,measurement,setting,value
"CC1(C)O[C@@H]2[C@@H](CO[C@@]3(COS(N)(=O)=O)OC(C)(C)O[C@@H]23)O1 [topiramate, 2,3:4,5-Bis-O-(1-methylethylidene)-beta-D-fructopyranose sulfamate]","cognitive impairment reported, share of individuals",[1]; general population,2.4%
same,occurrence rate of cognitive impairment,[1]; substance abuse field,about 18.7%
"Cl.O=C1CC[C@@]2(O)[C@H]3Cc4ccc(O)c5c4[C@@]2(CCN3CC2CC2)[C@H]1O5 [naltrexone, 17-(Cyclopropylmethyl)-4,5a-epoxy-3,14-dihydroxymorphinan-6-one hydrochloride]",individuals unable to tolerate the dose,[2],about 15%
"Cc1nccn1CC1CCc2c(c3ccccc3n2C)C1=O (centres unmarked) [OND, 9-methyl-3-[(2-methyl-1H-imidazol-1-yl)methyl]-1,2,3,9-tetrahydrocarbazol-4-one]","E(Y|T=1), Y=phd base90-mean(phdweek)","[3]; overall sample, 251 subjects",32.1%
same,overall sample mean difference E(Y|T=1)−E(Y|T=0),"[3]; overall sample, ondansetron minus placebo",0.2%
same,"E(Y|T=1), Y=phd base90-mean(phdweek)","[3]; subgroup gen1=I (rs150226=AA or AG), 42 subjects",50.9%
same,sample mean difference E(Y|T=1)−E(Y|T=0),"[3]; subgroup gen1=I (rs150226=AA or AG), ondansetron minus placebo",28.7%
same,"E(Y|T=1), Y=phd base90-mean(phdweek)","[3]; subgroup gen2: rs1150226=GG, rs1176719=AA or AG, phd base90≥0.8663, 49 subjects",37.6%
same,sample mean difference E(Y|T=1)−E(Y|T=0),"[3]; subgroup gen2: rs1150226=GG, rs1176719=AA or AG, phd base90≥0.8663, ondansetron minus placebo",15.0%
same,"E(Y|T=1), Y=phd base90-mean(phdweek)","[3]; subgroup gen (gen1 + gen2), 91 subjects",43.0%
same,sample mean difference E(Y|T=1)−E(Y|T=0),"[3]; subgroup gen (gen1 + gen2), ondansetron minus placebo",20.6%
